The values below come from US20050002943A1, “Amp-kinase agonists or adenosine pro-drugs as immuno-stimulating agents” (priority 2001, published 2005).

The subject of data set [1] is BALB/c mice. In words: Primary and secondary antibody response to human gamma globulins (HGG), serum ELISA (Example 4). Type of data set: in vivo. To be noted: HGG 15 μg + AICA-riboside 10 mg i.p., boost day 25. The protocol:
BALB/c mice received an intraperitoneal injection of HGG (15 μg) or HGG (15 μg)+AICA-riboside (10 mg). 16 days after immunization, mice were bled and serum levels of HGG-specific antibodies were determined by ELISA as described. On day 25, the two groups of mice received respectively a boost of HGG (15 μg) and of HGG (15 μg)+AICA-riboside (10 mg) intraperitoneally. Mice were bled 10 days after the boost and serum levels of HGG-specific antibodies were determined by ELISA as described previously (secondary response). The results are illustrated in FIG. 4.
Background: In an ELISA, binding on a coated surface is turned into a signal by an enzyme label.

The next data set concerns murine lymphocytes. The data set is described as follows: In vitro response of murine lymphocytes, cytokine secretion. Type of data set: cell-based. The text has this: (§1) Although the precise mechanism(s) by which AICA-riboside augments antibody responses in vivo is presently unknown, some points are noteworthy in light of the present invention. […] A qualitative change of the humoral response is also observed, as immunoglobulins of the IgG isotype (generally detected only during the secondary response) are already detected during the primary response in animals treated with antigen/AICA-riboside formulations. […] The immuno-potentiating effect of AICA-riboside in combination with said antigen is as good when the compounds are administered mixed together (co-administered) as when administered separately or sequentially. […] The use of this agent therefore probably precludes local pain after injection.

For data set [2], the system named is BALB/c mice. In words: Primary, secondary and day 120 Ars-specific antibody response to Ars-KLH, serum ELISA (Examples 2 and 3). Type of data set: in vivo. Here is the method: Three groups of BALB/c mice received an intraperitoneal injection of Ars-KLH (100 μg), Ars-KLH (100 μg)+AICA-riboside (10 mg) or Ars-KLH (100 μg)+Alum (50 μl). 21 days after immunization, mice were bled and serum levels of antigen (Ars)-specific antibodies were determined by ELISA as previously described (primary response). On day 22, all mice received a second injection (boost) of Ars-KLH (100 μg) i.p. Mice were bled 8 days after the antigen boost and serum levels of Ars-specific antibodies were determined by ELISA (secondary response). The results are illustrated in FIG. 2.
Mice immunized according to the protocol described in example 2 were bled 120 days after the first encounter with the antigen (in the presence or absence of adjuvant) and serum levels of antigen specific antibodies were determined by ELISA as described previously (secondary response, day 120).

The subject of data set [3] is BALB/c mice. The data set is described as follows: Primary antibody response to Ars-KLH with AICAR or 6-MPR, serum ELISA (Example 10). To be noted: 3 mg i.p. with Ars-KLH 100 μg; for antigen-specific IgG antibodies: vs antigen without adjuvant, day 19. In kind it is in vivo. Here is the method:
BALB/c micereceived an intraperitoneal injection of Ars-KLH (100 μg), Ars-KLH+AICAR (3 mg) or Ars-KLH+6-MPR (3 mg). 19 days after Immunization, mice were bled and serum levels of antigen specific antibodies were determined by ELISA according to standard procedure using isotype-specific rat Mab.

For data set [4], the system named is BALB/c mice. In words: Ars-KLH antibody response, timing of AICA-riboside injection relative to antigen (Example 6). Type of data set: in vivo. To be noted: AICA-riboside 10 mg i.p. at d-1, d0 or d+1, separate site from Ars-KLH 100 μg. Here is the method:
BALB/c mice received an intraperitoneal injection of AICA-riboside (10 mg) one day before (d-1), the same day (d0) or the day after (d+1) the intraperitoneal injection (in a separate site) of Ars-KLH (100 μg). A fourth group (n.t.) received an intraperitoneal injection of phosphate buffer solution the day of the antigen administration. 20 days after immunization, mice were bled and serum levels of Ars-specific antibodies were determined by ELISA according to standard procedures using isotype-specific reagents (primary response). On day 21, all mice received a boost of Ars-KLH (50 μg) intraperitoneally. Mice were bled 14 days after the antigen boost and serum levels of Ars-specific antibodies were determined by ELISA as described previously (secondary response).

Data set [5] deals with BALB/c mice. In words: Size of draining lymph nodes after footpad injection (Example 8). In kind it is in vivo. The settings on record: rear footpad injection with NP-KLH 25 μg; AICA-riboside 2.5 mg or Alum 12.5 μg; 8 days. Here is the method: BALB/c mice were injected with NP-KLH (25 μg), NP-KLH (25 μg)+AICA-riboside (2.5 mg) or NP-KLH (25 μg)+Alum (12.5 μg) in the two rear footpads. 8 days after injection, mice were sacrificed and their posterior lymph nodes were collected and immediately analyzed for size.

In data set [6] the test system is BALB/c mice. The data set is described as follows: Local inflammatory response at injection site, GR-1 immunohistochemistry (Example 9). In kind it is in vivo. The settings on record: rear footpad injection; AICA-riboside 2.5 mg or alum 12.5 μg; 8 or 24 hours. Here is the method: BALB/c mice were injected with saline (50 μl PBS), AICA-boside (2.5 mg) or alum (12.5 μg) in the two rear footpads. 8 or 24 hours after treatment mice were sacrificed, and thin sections of the tissues surrounding the injection site (marked by a circle) were analyzed by immunohistochemistry. Inflammatory cells (mostly granulocytes and monocytes) were identified using an antibody directed to the murine GR-1 molecule.

The subject of another data set is mice. The data set is described as follows: Serum antibody response in mice to protein antigens mixed with AICA-riboside (general studies). Type of data set: in vivo.
Description: as §1

Data set [7] relates to BALB/c mice. In words: NP-KLH antibody response in anti-CD4 treated mice (Example 7). In kind it is in vivo. The settings on record: anti-CD4 (GK1.5) treated mice; NP-KLH 100 μg + AICA-riboside 10 mg i.p.; day 10. The protocol: BALB/c mice, were treated or not with anti-CD4 antibodies (two intraperitoneal injections of 200 μl of the depleting rat anti-mouse anti-CD4 antibody, clone GK1.5, on days 0 and 5). On day 2 mice were injected intraperitoneally with NP-KLH (100 μg) or NP-KLH (100 μg)+AICA-riboside (10 mg). 10 days after immunization, mice were bled and serum levels of NP-specific antibodies were determined by ELISA according to standard procedures using isotype specific reagents.

For data set [8], the system named is BALB/c mice. The data set is described as follows: Antigen (NP)-specific antibody response to NP-KLH, serum ELISA (Example 1). Type of data set: in vivo. The protocol: BALB/c mice were injected intraperitoneally with 200 μl of saline, aqueous solution (phosphate buffer solution), or with 200 μl of phosphate buffer solution containing AICA-riboside (10 mg), NP-KLH (100 μg) or NP-KLH (100 μg)+AICA-riboside (10 mg). Height days after immunization, mice were bled and serum levels of antigen (NP)-specific antibodies were determined by ELISA according to standard procedure using isotype-specific reagents.

In the next data set the test system is humans. The settings on record: all dose levels (10 to 100 mg/kg); cited from earlier work.
Data set [9] concerns BALB/c mice. In words: Ars-KLH antibody response over a range of AICA-riboside doses (Example 5). In kind it is in vivo. The settings on record: AICA-riboside 3 to 0.3 mg i.p. with Ars-KLH 100 μg; primary and secondary response. The protocol:
BALB/c mice received an intraperitoneal injection of Ars-KLH (100 μg) or Ars-KLH (100 μg)+AICA-riboside at concentrations ranging from 3 to 0.3 mg. 21 days after immunization, mice were bled and serum levels of antigen (Ars)-specific antibodies were determined by ELISA according to standard procedure using isotype-specific reagents (primary response). On day 22, all mice received a boost of Ars-KLH (50 μg) intraperitoneally. Mice were bled 14 days after the antigen boost and serum levels of Ars-specific antibodies were determined by ELISA as described previously (secondary response). The results are illustrated in FIG. 5.

Data set [10] relates to BALB/c mice. The data set is described as follows: Primary and secondary antibody response to Ars-KLH with oligomycin, serum ELISA (Example 11). Type of data set: in vivo. To be noted: oligomycin 10 μg i.p. with Ars-KLH 50 μg, vs antigen alone; primary (day 21) and secondary (14 days after boost). Here is the method: BALB/C mice were injected intraperitoneally with Ars-KLH (50 μg) mixed with saline, AICA-riboside (3 mg) or oligomycin (10 μg). 21 days after immunization, mice were bled and serum levels of Ars-specific antibodies (primary response) were determined by ELISA according to standard procedure using isotype-specific rat mAb. […] On day 22, all mice received a second injection of Ars-KLH (50 μg) intrapertioneally. Mice were bled 14 days after the antigen boost and serum levels of Ars-KLH-specific antibodies (secondary response) were determined by ELISA.

Molecules are shown by their SMILES. Entries after “also recorded” stand apart in the source; their conditions may differ.

As for `NC(=O)c1ncn([C@@H]2O[C@H](CO)[C@@H](O)[C@H]2O)c1N` [AICA-riboside, 5-aminoimidazole-4-carboxamide riboside], the “antibody response to protein antigen HGG” value in the data set on BALB/c mice [1] is reported as “augments the antibody response”. Moreover, the secretion of cytokines result in the data set with murine lymphocytes (in response to bacterial mitogens, lectins or protein antigens) is on record as “did not affect the secretion of cytokines”. In addition, in the data set with murine lymphocytes (in vitro), the “enhancing effect on in vitro response of murine lymphocytes” value is listed as “no enhancing effect”. Moreover, in the data set on BALB/c mice [2] (10 mg i.p. with Ars-KLH 100 μg, vs antigen without adjuvant), the “antigen-specific IgM response” value is recorded as “unaffected”. The “antigen-specific IgG antibodies” value in the data set with BALB/c mice [2] (10 mg i.p. with Ars-KLH 100 μg, vs antigen without adjuvant, primary (day 21) and secondary (8 days after boost) response) is given as “increased levels of antigen-specific IgG antibodies”; with BALB/c mice [3], “increased levels of antigen-specific IgG antibodies”. For the same compound, the “immuno-stimulatory properties compared with Alum” value with BALB/c mice [2] (AICA-riboside 10 mg vs Alum 50 μl, each with Ars-KLH 100 μg i.p.) is listed as “comparable to the Alum adjuvant”. Moreover, the “antigen-specific response, day 120” value in the data set with BALB/c mice [2] (bled 120 days after first encounter with antigen, vs antigen alone) is “long-lasting increase in antigen-specific response”. Also, the “Ars specific antibodies concentrations” value in the data set with BALB/c mice [3] (serum 19 days after immunization, Ars-KLH+saline control 0.04) stood at 1.607 ± 0.521 µg/mL. Further, the “adjuvant effect depending on time of injection” value in the data set on BALB/c mice [4] is listed as “only manifest when AICA-riboside is injected at the same moment with the antigen”. The “swelling of the lymph node draining the injection site” value in the data set with BALB/c mice [5] was “does not induce the swelling”. Besides, the “GR-1-expressing inflammatory cell recruitment / cellular infiltrates” value in the data set on BALB/c mice [6] is reported as “minimal GR-1-expressing cells recruitment to sites distant from the injection site”. Moreover, the “tissue necrosis at injection site” value in the data set with BALB/c mice [6] is “no tissue necrosis or abnormality”. Further, the “local inflammatory response following injection” value with mice (injection into mice) is “no local inflammatory response was observed”. Also, the “boost of serum antibody response above unadjuvanted antigens” value with mice (mixed in aqueous solutions with protein antigens, mice) is on record as “five to ten folds”. Moreover, the “antigen-specific antibody responses in the absence of CD4-expressing T cells” value in the data set with BALB/c mice [7] was “does not augment the antigen-specific antibody responses”. The “antigen (NP)-specific antibody response” value is on record as “increased antigen-specific antibody response” in the data set on BALB/c mice [8] (AICA-riboside 10 mg co-administered i.p. with NP-KLH 100 μg, vs antigen alone, bled Height days after immunization) and “does not lead to an increased, antigen-specific antibody response” in the data set on BALB/c mice [8] (AICA-riboside 10 mg i.p. alone, without antigen). Also, the tolerability in humans entry in the data set with humans is recorded as “well tolerated”. Also, the “adjuvant activity over dose range” value in the data set on BALB/c mice [9] is “can act as an adjuvant over a wide range of doses”.

With `CC[C@H]1/C=C/C=C/C[C@@H](C)[C@H](O)[C@@](C)(O)C(=O)[C@@H](C)[C@H](O)[C@@H](C)C(=O)[C@@H](C)[C@H](O)[C@@H](C)/C=C/C(=O)O[C@@H]2[C@H](C)[C@H](CC1)O[C@]1(CC[C@H](C)[C@H](C[C@@H](C)O)O1)[C@H]2C` [oligomycin], the “antigen-specific IgG antibodies” value in the data set on BALB/c mice [10] is reported as “increased levels of antigen-specific IgG antibodies; also recorded: increases antibody responses”.

Regarding `OC[C@H]1O[C@@H](n2cnc3c(S)ncnc32)[C@H](O)[C@@H]1O` [6-MPR, 6-mercaptopurine riboside], the “antigen-specific IgG antibodies” value in the data set with BALB/c mice [3] is “increased levels of antigen-specific IgG antibodies”.
